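Method: 48-hour compound exposure of cells in 96-well plates, five concentrations, linear interpolation of endpoints. At the GI50, growth is halved. Definition used: TGI = concentration required for complete inhibition of growth.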
Columns and labels:
Test in all cases: inhibition of tumour cell growth, NCI panel, 48 h
786-0 renal = tested on: 786-0 renal
A498 renal = tested on: A498 renal
A549 NSCLC = tested on: A549 NSCLC
ACHN renal = tested on: ACHN renal
BT-549 breast = tested on: BT-549 breast
CAKI-1 renal = tested on: CAKI-1 renal
CCRF-CEM leukemia = tested on: CCRF-CEM leukemia
COLO 205 colon = tested on: COLO 205 colon
DU-145 prostate = tested on: DU-145 prostate
EKVX NSCLC = tested on: EKVX NSCLC
HCC-2998 colon = tested on: HCC-2998 colon
HCT-116 colon = tested on: HCT-116 colon
HCT-15 colon = tested on: HCT-15 colon
HL-60(TB) leukemia = tested on: HL-60(TB) leukemia
HOP-62 NSCLC = tested on: HOP-62 NSCLC
HOP-92 NSCLC = tested on: HOP-92 NSCLC
HS 578T breast = tested on: HS 578T breast
K-562 leukemia = tested on: K-562 leukemia
KM12 colon = tested on: KM12 colon
LOX IMVI melanoma = tested on: LOX IMVI melanoma
M14 melanoma = tested on: M14 melanoma
MALME-3M melanoma = tested on: MALME-3M melanoma
MCF7 breast = tested on: MCF7 breast
MDA-MB-231 breast = tested on: MDA-MB-231 breast
MDA-MB-435 = tested on: MDA-MB-435
MOLT-4 leukemia = tested on: MOLT-4 leukemia
NCI-H226 lung = tested on: NCI-H226 lung
NCI-H23 lung = tested on: NCI-H23 lung
NCI-H460 lung = tested on: NCI-H460 lung
NCI-H522 lung = tested on: NCI-H522 lung
NCI/ADR-RES ovarian = tested on: NCI/ADR-RES ovarian
OVCAR-3 ovarian = tested on: OVCAR-3 ovarian
OVCAR-4 ovarian = tested on: OVCAR-4 ovarian
OVCAR-5 ovarian = tested on: OVCAR-5 ovarian
OVCAR-8 ovarian = tested on: OVCAR-8 ovarian
RPMI-8226 leukemia = tested on: RPMI-8226 leukemia
RXF 393 renal = tested on: RXF 393 renal
SF-268 CNS = tested on: SF-268 CNS
SF-295 CNS = tested on: SF-295 CNS
SF-539 CNS = tested on: SF-539 CNS
SK-MEL-2 melanoma = tested on: SK-MEL-2 melanoma
SK-MEL-28 melanoma = tested on: SK-MEL-28 melanoma
SK-MEL-5 melanoma = tested on: SK-MEL-5 melanoma
SK-OV-3 ovarian = tested on: SK-OV-3 ovarian
SN12C renal = tested on: SN12C renal
SNB-19 CNS = tested on: SNB-19 CNS
SR leukemia = tested on: SR leukemia
SW-620 colon = tested on: SW-620 colon
T-47D breast = tested on: T-47D breast
TK-10 renal = tested on: TK-10 renal
U251 CNS = tested on: U251 CNS
UACC-257 melanoma = tested on: UACC-257 melanoma
UACC-62 melanoma = tested on: UACC-62 melanoma
UO-31 renal = tested on: UO-31 renal
HT29 colon = tested on: HT29 colon
IGROV1 ovarian = tested on: IGROV1 ovarian
PC-3 prostate = tested on: PC-3 prostate
SNB-75 CNS = tested on: SNB-75 CNS

COc1cc(/C=C2/SC(c3ccccc3)N(c3ccccc3)C2=O)cc(OC)c1OC (stereo not given)
TGI (786-0 renal): > 100 µM | TGI (A498 renal): > 100 µM | TGI (A549 NSCLC): > 100 µM | TGI (ACHN renal): > 100 µM | TGI (BT-549 breast): > 100 µM | TGI (CAKI-1 renal): > 100 µM | TGI (CCRF-CEM leukemia): 42.2 µM | TGI (COLO 205 colon): > 100 µM | TGI (DU-145 prostate): > 100 µM | TGI (EKVX NSCLC): > 100 µM | TGI (HCC-2998 colon): > 100 µM | TGI (HCT-116 colon): > 100 µM | TGI (HCT-15 colon): > 100 µM | TGI (HL-60(TB) leukemia): > 100 µM | TGI (HOP-62 NSCLC): > 100 µM | TGI (HOP-92 NSCLC): > 100 µM | TGI (HS 578T breast): > 100 µM | TGI (K-562 leukemia): > 100 µM | TGI (KM12 colon): > 100 µM | TGI (LOX IMVI melanoma): > 100 µM | TGI (M14 melanoma): > 100 µM | TGI (MALME-3M melanoma): > 100 µM | TGI (MCF7 breast): > 100 µM | TGI (MDA-MB-231 breast): > 100 µM | TGI (MDA-MB-435): > 100 µM | TGI (MOLT-4 leukemia): > 100 µM | TGI (NCI-H226 lung): > 100 µM | TGI (NCI-H23 lung): > 100 µM | TGI (NCI-H460 lung): > 100 µM | TGI (NCI-H522 lung): > 100 µM | TGI (NCI/ADR-RES ovarian): > 100 µM | TGI (OVCAR-3 ovarian): > 100 µM | TGI (OVCAR-4 ovarian): > 100 µM | TGI (OVCAR-5 ovarian): > 100 µM | TGI (OVCAR-8 ovarian): > 100 µM | TGI (RPMI-8226 leukemia): 66.6 µM | TGI (RXF 393 renal): > 100 µM | TGI (SF-268 CNS): > 100 µM | TGI (SF-295 CNS): > 100 µM | TGI (SF-539 CNS): > 100 µM | TGI (SK-MEL-2 melanoma): > 100 µM | TGI (SK-MEL-28 melanoma): > 100 µM | TGI (SK-MEL-5 melanoma): > 100 µM | TGI (SK-OV-3 ovarian): > 100 µM | TGI (SN12C renal): > 100 µM | TGI (SNB-19 CNS): > 100 µM | TGI (SR leukemia): > 100 µM | TGI (SW-620 colon): > 100 µM | TGI (T-47D breast): > 100 µM | TGI (TK-10 renal): > 100 µM | TGI (U251 CNS): > 100 µM | TGI (UACC-257 melanoma): > 100 µM | TGI (UACC-62 melanoma): > 100 µM | TGI (UO-31 renal): > 100 µM

Cc1oc(N)c(S(=O)(=O)c2ccc(Cl)cc2)c1C
TGI (786-0 renal): > 100 µM | TGI (A498 renal): > 100 µM | TGI (A549 NSCLC): > 100 µM | TGI (ACHN renal): > 100 µM | TGI (BT-549 breast): 60.5 µM | TGI (CCRF-CEM leukemia): > 100 µM | TGI (DU-145 prostate): > 100 µM | TGI (EKVX NSCLC): > 100 µM | TGI (HCC-2998 colon): > 100 µM | TGI (HCT-116 colon): > 100 µM | TGI (HCT-15 colon): > 100 µM | TGI (HL-60(TB) leukemia): > 100 µM | TGI (HOP-92 NSCLC): > 100 µM | TGI (HS 578T breast): > 100 µM | TGI (HT29 colon): > 100 µM | TGI (IGROV1 ovarian): > 100 µM | TGI (K-562 leukemia): > 100 µM | TGI (KM12 colon): > 100 µM | TGI (M14 melanoma): > 100 µM | TGI (MALME-3M melanoma): > 100 µM | TGI (MCF7 breast): > 100 µM | TGI (MDA-MB-435): > 100 µM | TGI (MOLT-4 leukemia): > 100 µM | TGI (NCI-H226 lung): > 100 µM | TGI (NCI-H23 lung): > 100 µM | TGI (NCI-H460 lung): > 100 µM | TGI (NCI-H522 lung): > 100 µM | TGI (NCI/ADR-RES ovarian): > 100 µM | TGI (OVCAR-3 ovarian): > 100 µM | TGI (OVCAR-4 ovarian): > 100 µM | TGI (OVCAR-5 ovarian): > 100 µM | TGI (OVCAR-8 ovarian): > 100 µM | TGI (PC-3 prostate): 78 µM | TGI (RPMI-8226 leukemia): > 100 µM | TGI (RXF 393 renal): > 100 µM | TGI (SF-268 CNS): > 100 µM | TGI (SF-295 CNS): > 100 µM | TGI (SF-539 CNS): 64.2 µM | TGI (SK-MEL-2 melanoma): > 100 µM | TGI (SK-MEL-28 melanoma): > 100 µM | TGI (SK-MEL-5 melanoma): > 100 µM | TGI (SK-OV-3 ovarian): > 100 µM | TGI (SNB-19 CNS): > 100 µM | TGI (SNB-75 CNS): > 100 µM | TGI (SR leukemia): > 100 µM | TGI (SW-620 colon): > 100 µM | TGI (T-47D breast): > 100 µM | TGI (TK-10 renal): > 100 µM | TGI (U251 CNS): > 100 µM | TGI (UACC-257 melanoma): > 100 µM | TGI (UACC-62 melanoma): > 100 µM | TGI (UO-31 renal): > 100 µM

COc1ccc(C(=O)/C=C/c2cc3c(c(OC)c2)OCC(=O)N3)cc1
GI50 (786-0 renal): 3.36 µM | TGI (786-0 renal): > 100 µM | GI50 (DU-145 prostate): 2.74 µM | TGI (DU-145 prostate): > 100 µM | GI50 (HCT-15 colon): 1.92 µM | TGI (HCT-15 colon): > 100 µM | GI50 (HOP-62 NSCLC): 3.73 µM | TGI (HOP-62 NSCLC): > 100 µM | GI50 (HOP-92 NSCLC): 1.27 µM | TGI (HOP-92 NSCLC): 17.7 µM | GI50 (HS 578T breast): 3.63 µM | TGI (HS 578T breast): > 100 µM | GI50 (MCF7 breast): 2.32 µM | TGI (MCF7 breast): > 100 µM | GI50 (MDA-MB-435): 3.11 µM | TGI (MDA-MB-435): > 100 µM | GI50 (NCI-H226 lung): 3.88 µM | TGI (NCI-H226 lung): > 100 µM | GI50 (NCI/ADR-RES ovarian): 3.14 µM | TGI (NCI/ADR-RES ovarian): > 100 µM | GI50 (OVCAR-8 ovarian): 2.85 µM | TGI (OVCAR-8 ovarian): > 100 µM | GI50 (SF-268 CNS): 3.42 µM | TGI (SF-268 CNS): > 100 µM | GI50 (SF-295 CNS): 4.57 µM | TGI (SF-295 CNS): > 100 µM | GI50 (SK-MEL-5 melanoma): 2.88 µM | TGI (SK-MEL-5 melanoma): > 100 µM | GI50 (SNB-19 CNS): 3.26 µM | TGI (SNB-19 CNS): > 100 µM | GI50 (SNB-75 CNS): 1.66 µM | TGI (SNB-75 CNS): 11.5 µM | GI50 (SR leukemia): 1.05 µM | TGI (SR leukemia): > 100 µM
